Calls of active or inactive are those of the source.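 How the source made its calls: active means mean IC50 for reducing PEG3 promoter reporter signal at or below a set limit, with IC50 above the limit in both counter screens; inactive means the rest, including counter screen hits.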
How the values were obtained:
[1] = molecular target: PEG-3 (UniProt Q6IN02); experiment: Peg3 promoter luciferase inhibitors, potency, dose response, cell-based, HeLa, CREF/GAPDH counter-screen panel (AID 624167); conditions: HeLa PEG-Prom luciferase reporter, overnight, CREF/GAPDH counter-screens, mean of runs
PEG-3 (UniProt Q6IN02), sequence (Q6IN02 whole entry, looked up): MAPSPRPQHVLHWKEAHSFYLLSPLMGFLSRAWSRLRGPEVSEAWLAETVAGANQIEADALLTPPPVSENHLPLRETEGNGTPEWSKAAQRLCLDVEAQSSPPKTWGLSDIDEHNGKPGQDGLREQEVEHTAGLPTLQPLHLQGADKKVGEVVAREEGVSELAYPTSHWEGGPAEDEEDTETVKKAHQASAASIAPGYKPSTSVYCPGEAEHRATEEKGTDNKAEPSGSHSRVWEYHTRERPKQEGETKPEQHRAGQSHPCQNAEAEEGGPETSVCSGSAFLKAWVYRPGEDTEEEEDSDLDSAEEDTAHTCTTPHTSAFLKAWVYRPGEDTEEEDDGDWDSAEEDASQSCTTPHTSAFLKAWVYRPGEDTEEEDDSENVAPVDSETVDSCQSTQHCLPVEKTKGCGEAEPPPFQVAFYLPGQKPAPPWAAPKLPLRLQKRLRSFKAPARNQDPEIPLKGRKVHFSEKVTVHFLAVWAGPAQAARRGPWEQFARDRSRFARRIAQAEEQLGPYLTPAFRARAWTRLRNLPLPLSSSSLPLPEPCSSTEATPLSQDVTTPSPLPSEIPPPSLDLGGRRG

[2] = system: PEG-3; experiment: as above; conditions: HeLa PEG-Prom luciferase reporter, overnight, CREF/GAPDH counter-screens
[3] = run 1, dose range 1, individual replicate IC50 per panel
[4] = run 2, dose range 1, individual replicate IC50 per panel

Row | SMILES | IC50 [1] | IC50 [2, 3] [µM] | IC50 [2, 4] [µM]
1 | CCOC(=O)c1ccc2ncc(C(=O)OCC)c(NCCN(C)C)c2c1 | inactive | 15 | 43.4
2 | COc1ccc(S(=O)(=O)N2c3ccccc3OCC2c2ccccc2)cc1 (stereo not given) | > 100 µM (inactive) | > 100 | > 100
3 | CCCN1C/C(=C/c2cccc([N+](=O)[O-])c2)C(=O)/C(=C/c2cccc([N+](=O)[O-])c2)C1 | inactive | 6.69 | > 100
4 | COc1ccccc1NC(=S)NC1CCCCCCCCCCC1 | inactive | 31.2 | 42.3
5 | COc1ccc(-c2nc3c(C(=O)NCCN(C)C)cccc3c3ccccc23)cc1 | 15 µM | 17.3 | 12.8
6 | CC1CCCC(C)N1C(=C(Cl)Cl)C(=C1SCCS1)[N+](=O)[O-] (stereo not given) | 14 µM | 11.5 | 16.6
7 | COc1cc(NC(=O)c2c(F)c(F)c(F)c(F)c2F)c(OC)cc1Cl | 19.8 µM | 23.7 | 15.9
8 | Cc1cc(Cl)n2ncc(-c3ccccc3)c2n1 | inactive | 40.1 | > 100
9 | COc1ccc(C2NCCc3c2[nH]c2ccccc32)cc1COc1ccc(F)cc1 (stereo not given) | 12.3 µM | 16.9 | 7.75
10 | O=S(=O)(c1cccs1)N1CCN(c2ccnc3cc(Cl)ccc23)CC1 | 17.4 µM | 11.7 | 23.2
11 | Cc1cc(C)c2sc(N(CCCN(C)C)C(=O)c3ccc(S(=O)(=O)N4CCCc5ccccc54)cc3)nc2c1 | 14.7 µM | 20.7 | 8.73
12 | CC(=O)Nc1ccc(S(=O)(=O)N(Cc2ccco2)Cc2cc3ccccc3[nH]c2=O)cc1 | inactive | 18.5 | 22.4
13 | CNCC[C@H](Oc1cccc2ccccc12)c1cccs1 | 17.7 µM | 18.8 | 16.6
14 | CCN1CCN(C(c2ccc(C(F)(F)F)cc2)c2ccc3cccnc3c2O)CC1 (stereo not given) | 19.1 µM | 21.7 | 16.5
15 | CCCC(=O)N1CCCC(c2cc(C(=O)Nc3ccccc3)no2)C1 (stereo not given) | 11.5 µM | 8.68 | 14.3
16 | CN(C)CCNc1ccc2nnn3c4ccc(O)cc4c(=O)c1c23 | inactive | 45.4 | 43
17 | O=C(NC1=C(NC2CCS(=O)(=O)C2)C(=O)c2ccccc2C1=O)c1ccccc1 (stereo not given) | 18.9 µM | 19.1 | 18.7
18 | CCN1C(=O)C(=Cc2cccc(OC)c2Oc2ccc([N+](=O)[O-])cc2[N+](=O)[O-])SC1=S | > 100 µM (inactive) | > 100 | > 100
19 | Cc1ccc(S(=O)(=O)N2CCCCC2)cc1C(=O)N(C)CC(=O)Nc1ccc(Cl)c(C(F)(F)F)c1 | inactive | 45.1 | 42.7
20 | O=[N+]([O-])c1cc(Cl)cc(/C=N\Nc2ccccn2)c1O | inactive | 1.39 | > 100
21 | CCc1ccc(OCCNc2cc(N3CCNC(C)C3)ccc2[N+](=O)[O-])cc1 (stereo not given) | 12.7 µM | 16.3 | 8.98
22 | CN(C)CC(O)COc1ccc(C(C)(C)c2ccc(OCC(O)CN(C)C)cc2)cc1 (stereo not given) | inactive | 26.8 | > 100

Row | SMILES | IC50 [1] | IC50 [2, 3] [µM] | IC50 [2, 4] [µM]
23 | CC(Cc1ccccc1)NCCC(c1ccccc1)c1ccccc1 (stereo not given) | 19.5 µM | 19.9 | 19.1
24 | CCOc1cccc2sc(N(CCCN(C)C)C(=O)c3ccc(S(=O)(=O)N(CC)Cc4ccccc4)cc3)nc12 | 15.4 µM | 19.1 | 11.8
25 | CCCc1cc(=O)n2[nH]c(C)c(-c3ccc(Cl)cc3)c2n1 | 12.9 µM | 14 | 11.8
26 | c1ccc(CN2CCC(Nc3nc(-c4cccnc4)nc4ccccc34)CC2)cc1 | inactive | 20.2 | 26.7
27 | O=Nc1c(O)ccc2cc(S(=O)(=O)O)ccc12 | 11.7 µM | 9.17 | 14.2
28 | CCN1CCN(c2ncc(C(=O)Nc3cc(Cl)ccc3OC)c3ccccc23)CC1 | inactive | 26.6 | 51.4
29 | COc1cc(/C=C/[N+](=O)[O-])ccc1OC(=O)/C=C/c1ccc(F)cc1 | > 100 µM (inactive) | > 100 | > 100
30 | COc1ccc(C(O)(CCC(C)C)C(CN2CCOCC2)c2ccccc2)cc1 (stereo not given) | inactive | 30.5 | 30.2
31 | CN(C)C=NC(=O)c1[nH]c2ccc(Cl)cc2c1-c1ccccc1 | 18.9 µM | 18 | 19.9
32 | COc1ccc(C(C(=O)NCC2CCCO2)N(Cc2cccs2)C(=O)c2snc(C(N)=O)c2N)cc1 (stereo not given) | inactive | > 100 | 9.42
33 | COc1ccc(-c2cc(C(=O)N3CCN(c4ccccc4F)CC3)c3ccccc3n2)c(OC)c1 | 11 µM | 9.03 | 13
34 | COc1cccc(CN(C)C(=O)c2cc(-c3cccs3)nc3ccccc23)c1 | inactive | 24.7 | 30.8
35 | COc1ccc(CN(C)C(=O)c2cc(-c3ccccc3)nc3ccc(C)cc23)c(OC)c1OC | inactive | 32.8 | 23.7
36 | CCOC(=O)c1cnc2c(cnn2C)c1NCCCN(C)C | inactive | 18.9 | 28.8
37 | CCOC(=O)c1c(NC(C)=O)sc2c(OCC(O)CNC(C)(C)C)c(Br)ccc12 (stereo not given) | 13.6 µM | 18 | 9.14
38 | CCOc1cc(CNCCCN2CCOCC2)ccc1OCC(=O)Nc1cccc2ccccc12 | 18.7 µM | 21.1 | 16.2
39 | COC(=O)CSC1=NS(=O)(=O)c2ccccc21 | inactive | > 100 | 33.5
40 | O=C(C(=O)N(Cc1ccccc1)Cc1ccccc1)c1c(-c2ccccc2)[nH]c2ccccc12 | inactive | > 100 | 7.5
41 | CC(C)N1CCc2c(sc(NC(=O)c3cc4cc([N+](=O)[O-])ccc4s3)c2C(N)=O)C1 | inactive | 22.5 | 17.6
42 | CCN(CC)CCN1CCN(c2cncc(-c3ccc4ccccc4c3)n2)CC1 | inactive | 34.4 | 11.9
43 | COc1cccc(NC(=O)Nc2cccc(C(=O)O)c2)c1 | inactive | 15.1 | 30
44 | COc1cccc(-c2sc3ccc(OC)cc3c2-c2ccc(OCCN(C)C)cc2)c1 | 15.5 µM | 15.7 | 15.2

Row | SMILES | IC50 [1] | IC50 [2, 3] [µM] | IC50 [2, 4] [µM]
45 | COc1ccc(-c2oc3ccc(-c4cc(OC)c(OC)c(OC)c4)cc3c2C#Cc2ccccn2)cc1 | 12.2 µM | 2.89 | 21.5
46 | COCc1ccc(CN2CCC(C(=O)Nc3cccc(-c4cccc(Cl)c4)c3)CC2)o1 | 13.3 µM | 16.8 | 9.78
47 | CC(=O)c1ccc(Nc2cc(C)nc3ccc(C)cc23)cc1 | 13.3 µM | 21.8 | 4.69
48 | CC1=CC2OC3CC4OC(=O)C=CC=CC(C(C)O)OCC(O)C(C)CC(=O)OCC2(CC1O)C4(C)C31CO1 (stereo not given) | < 0.2 µM | < 0.2 | < 0.2
49 | COc1ccc2nc3n(c(=O)c2c1)-c1cc2ccccc2cc1C(=O)NC3Cc1ccc(O)cc1 (stereo not given) | 17.5 µM | 21.2 | 13.9
50 | COc1ccc2c(c1)C=C([C@@H]1C[C@H]3CN(c4ccccc4)C(=O)[C@]34CCCN14)CO2 | > 100 µM (inactive) | > 100 | > 100
51 | CCCN(CC(=O)Nc1ccccc1C)C(=O)CCl | inactive | 56.1 | > 100
52 | COc1ccc(C(=O)Nc2cccc(C(=O)N/N=C/c3ccc(OC)cc3OC)c2)cc1 | inactive | 28.1 | 38
53 | FC(F)Sc1ccc(NC(=S)NC(c2ccccc2)c2ccccc2)cc1 | 18 µM | 19.9 | 16
54 | CC(C)CC1C(=O)N(Cc2cn(CCC3OCCO3)nn2)CCS(=O)(=O)N1Cc1ccc(-c2ccc(F)cc2)cc1 (stereo not given) | inactive | 31.3 | 33.2
55 | O=c1c2ccccc2nc(CSc2ncnc3nc[nH]c23)n1-c1ccc(Cl)c(Cl)c1 | inactive | 8.77 | > 100
56 | Cc1cc(C)c2sc(N(CCCN(C)C)C(=O)c3ccc(S(=O)(=O)N(C)Cc4ccccc4)cc3)nc2c1 | 18.9 µM | 20.3 | 17.4
57 | Cc1nn(-c2ccccc2)c2c1C(c1ccc([N+](=O)[O-])cc1)N1C(=N2)C(=O)Nc2ccccc21 (stereo not given) | > 100 µM (inactive) | > 100 | > 100
58 | COC(=O)c1ccc(OCC2c3cc(OC)c(OC)cc3CCN2C(=O)c2ccco2)cc1 (stereo not given) | 19.4 µM | 25.2 | 13.6
59 | CCCCN(C)C(=O)c1ccc(Nc2nc(C(N)CCc3ccccc3)cs2)nc1 (stereo not given) | inactive | 27.6 | 15.4
60 | COC(=O)C1=C(C)N(Cc2ccccc2)C(=NCCc2c[nH]c3ccccc23)N[C@H]1c1cccc(C(F)(F)F)c1 | inactive | 17.8 | 23
61 | CN(C)CCCN(C(=O)c1ccc(C(=O)c2ccccc2)cc1)c1nc2cc3c(cc2s1)OCO3 | 16 µM | 18.8 | 13.3
62 | O=C(Nc1ccc(-c2cn3ccsc3n2)cc1)c1ccc(F)c(S(=O)(=O)N2CCOCC2)c1 | > 100 µM (inactive) | > 100 | > 100
63 | N#Cc1c(N)nc(SCc2ccncc2)c(C#N)c1-c1cccs1 | 17.1 µM | 21.4 | 12.8
64 | Oc1c(Cl)cc(Cl)c2cccnc12 | 12.3 µM | 17.9 | 6.75
65 | COc1ccc(-n2nnnc2C(C2CC2)N2CCC(n3c(=O)[nH]c4ccccc43)CC2)cc1 (stereo not given) | inactive | 58.3 | 14.7

Reference: PubChem BioAssay AID624167 (Sanford-Burnham Center for Chemical Genomics, 2012)
